MIC data for 15 compounds are collected here from ChEMBL document CHEMBL5120874, “Tanzawaic Acid Derivatives: Fungal Polyketides from the Deep-Sea Coral-Derived Endozoic Penicillium steckii AS-324” (2022).

Holding throughout (type): functional
One assay has as its system Aeromonas hydrophila. The assay is described as follows: Antibacterial activity against Aeromonas hydrophila QDIO-1 assessed as inhibition of bacterial growth by serial dilution method.
In a further assay the test system is Edwardsiella tarda. The assay is described as follows: Antibacterial activity against Edwardsiella tarda QDIO-2 assessed as inhibition of bacterial growth by serial dilution method.
Another assay concerns Pseudomonas aeruginosa. The assay can be described thus: Antibacterial activity against Pseudomonas aeruginosa QDIO-4 assessed as inhibition of bacterial growth by serial dilution method.
The test system of a further assay is Escherichia coli. The assay can be described thus: Antibacterial activity against Escherichia coli EMBLC-1 assessed as inhibition of bacterial growth by serial dilution method.
The next assay relates to Micrococcus luteus. The assay can be described thus: Antibacterial activity against Micrococcus luteus QDIO-3 assessed as inhibition of bacterial growth by serial dilution method.
The subject of a further assay is Vibrio anguillarum. The assay is described as follows: Antibacterial activity against Vibrio anguillarum QDIO-6 assessed as inhibition of bacterial growth by serial dilution method.
The next assay has as its system Vibrio alginolyticus. The assay can be described thus: Antibacterial activity against Vibrio alginolyticus QDIO-5 assessed as inhibition of bacterial growth by serial dilution method.
The next assay concerns Vibrio parahaemolyticus. The assay is described as follows: Antibacterial activity against Vibrio parahaemolyticus QDIO-8 assessed as inhibition of bacterial growth by serial dilution method.

In brackets after ≈: the same amount, converted by molar mass. A value given as a limit tells only on which side of the number the result lay.

A word on the MIC: it is the least concentration at which growth counts as inhibited. Consider `Cc1ccc2c(c1/C=C/C=C/C(=O)O)[C@H](C)C[C@@](C)(O)C2`, for which the MIC in the assay on Aeromonas hydrophila was more than 64 µg/mL; with Edwardsiella tarda it was more than 64 µg/mL; in the assay on Pseudomonas aeruginosa it was 16 µg/mL (≈ 55.9 µM); in the assay on Escherichia coli, more than 64 µg/mL; in the assay on Micrococcus luteus, more than 64 µg/mL; with Vibrio anguillarum it was more than 64 µg/mL. The MIC with Vibrio alginolyticus and in the assay on Vibrio parahaemolyticus was more than 64 µg/mL each time.

For the compound `C[C@H]1C=C[C@H]2C[C@@H](CO)C[C@](C)(O)[C@@H]2[C@H]1/C=C/C=C/C(=O)O`, the MIC was more than 64 µg/mL with Aeromonas hydrophila; more than 64 µg/mL with Edwardsiella tarda; 4 µg/mL (≈ 13.1 µM) in the assay on Pseudomonas aeruginosa; more than 64 µg/mL in the assay on Escherichia coli; more than 64 µg/mL in the assay on Micrococcus luteus; more than 64 µg/mL in the assay on Vibrio anguillarum. For the same compound, the MIC in the assay on Vibrio alginolyticus and with Vibrio parahaemolyticus was more than 64 µg/mL in each case.

Consider `Cc1cc(C)c2c(/C=C/C=C/C(=O)O)c(CO)ccc2c1`, for which the MIC with Aeromonas hydrophila is 64 µg/mL (≈ 227 µM); in the assay with Edwardsiella tarda it was more than 64 µg/mL; in the assay with Pseudomonas aeruginosa, more than 64 µg/mL; with Escherichia coli, more than 64 µg/mL; with Micrococcus luteus, more than 64 µg/mL; in the assay with Vibrio anguillarum, more than 64 µg/mL. Besides, the MIC with Vibrio alginolyticus is 32 µg/mL (≈ 113 µM); with Vibrio parahaemolyticus, 64 µg/mL (≈ 227 µM).

On to `Cc1cc(CO)cc2ccc(CO)c(/C=C/C=C/C(=O)O)c12`, for which the MIC in the assay with Aeromonas hydrophila, in the assay with Edwardsiella tarda, in the assay on Pseudomonas aeruginosa, in the assay on Escherichia coli, with Micrococcus luteus and with Vibrio anguillarum was more than 64 µg/mL each time. Moreover, the values for the MIC with Vibrio alginolyticus and in the assay on Vibrio parahaemolyticus were 64 µg/mL (≈ 215 µM) and more than 64 µg/mL, respectively.

In the case of `CO[C@]1(C)C=C[C@H]2C[C@@H](CO)C[C@@H](C)[C@@H]2[C@H]1/C=C/C=C/C(=O)O`, the MIC with Aeromonas hydrophila was more than 64 µg/mL; in the assay on Edwardsiella tarda, more than 64 µg/mL; in the assay with Pseudomonas aeruginosa it was more than 64 µg/mL; in the assay with Escherichia coli, more than 64 µg/mL; in the assay with Micrococcus luteus it was more than 64 µg/mL; in the assay with Vibrio anguillarum, 8 µg/mL (≈ 25 µM). The figures for the MIC with Vibrio alginolyticus and with Vibrio parahaemolyticus were more than 64 µg/mL and 64 µg/mL (≈ 200 µM), respectively.

As to `C[C@@H]1C[C@H](CO)C[C@@H]2C=C[C@@](C)(O)[C@](O)(/C=C/C=C/C(=O)O)[C@@H]12`, the MIC in the assay on Aeromonas hydrophila is more than 64 µg/mL; with Edwardsiella tarda, more than 64 µg/mL; in the assay on Pseudomonas aeruginosa, more than 64 µg/mL; in the assay with Escherichia coli it was more than 64 µg/mL; with Micrococcus luteus, more than 64 µg/mL; in the assay with Vibrio anguillarum, 8 µg/mL (≈ 24.8 µM). The MIC in the assay on Vibrio alginolyticus is 32 µg/mL (≈ 99.3 µM); with Vibrio parahaemolyticus, 64 µg/mL (≈ 199 µM).

For `Cc1ccc2c(c1/C=C/C=C/C(=O)O)[C@H](C)C[C@H](C)[C@@H]2O`, the MIC in the assay on Aeromonas hydrophila was 32 µg/mL (≈ 112 µM); in the assay with Edwardsiella tarda, more than 64 µg/mL; with Pseudomonas aeruginosa it was more than 64 µg/mL; in the assay on Escherichia coli, 64 µg/mL (≈ 223 µM); in the assay on Micrococcus luteus, 64 µg/mL (≈ 223 µM); with Vibrio anguillarum, 4 µg/mL (≈ 14 µM). The MIC in the assay with Vibrio alginolyticus and in the assay on Vibrio parahaemolyticus was 32 µg/mL (≈ 112 µM) each time.

Turning to `C[C@@H]1C[C@@H]2C=C[C@H](C)[C@H](/C=C/C=C/C(=O)O)[C@H]2[C@@](C)(O)C1`, the MIC in the assay with Aeromonas hydrophila was more than 64 µg/mL; with Edwardsiella tarda, more than 64 µg/mL; in the assay with Pseudomonas aeruginosa, more than 64 µg/mL; with Escherichia coli it was 64 µg/mL (≈ 220 µM); in the assay on Micrococcus luteus it was more than 64 µg/mL; in the assay on Vibrio anguillarum, more than 64 µg/mL. Also, the MIC in the assay with Vibrio alginolyticus came out at 32 µg/mL (≈ 110 µM); with Vibrio parahaemolyticus, 64 µg/mL (≈ 220 µM).

As to `CC1C=C[C@H]2C[C@@H](CO)C[C@@H](C)[C@@H]2[C@H]1/C=C/C=C/C(=O)O` (stereo not given in full), the MIC in the assay on Aeromonas hydrophila was 64 µg/mL (≈ 220 µM); with Edwardsiella tarda it was more than 64 µg/mL; in the assay on Pseudomonas aeruginosa, more than 64 µg/mL; in the assay on Escherichia coli, 64 µg/mL (≈ 220 µM); in the assay on Micrococcus luteus, 8 µg/mL (≈ 27.5 µM); in the assay with Vibrio anguillarum, more than 64 µg/mL. For the same compound, the MIC in the assay with Vibrio alginolyticus is 8 µg/mL (≈ 27.5 µM); in the assay with Vibrio parahaemolyticus it was more than 64 µg/mL.

Regarding `Cc1cc(CO)cc2ccc(CO)c(/C=C\C=C\C(=O)O)c12`, the MIC in the assay on Aeromonas hydrophila, in the assay with Edwardsiella tarda, in the assay on Pseudomonas aeruginosa, with Escherichia coli, in the assay with Micrococcus luteus and in the assay on Vibrio anguillarum was more than 64 µg/mL throughout. The MIC with Vibrio alginolyticus and in the assay on Vibrio parahaemolyticus was more than 64 µg/mL each time.

As to `CO[C@@]1(C)C=C[C@H]2C[C@@H](CO)C[C@@H](C)[C@@H]2[C@H]1/C=C/C=C/C(=O)O`, the MIC is more than 64 µg/mL with Aeromonas hydrophila; more than 64 µg/mL with Edwardsiella tarda; more than 64 µg/mL with Pseudomonas aeruginosa; 8 µg/mL (≈ 25 µM) in the assay with Escherichia coli; more than 64 µg/mL with Micrococcus luteus; more than 64 µg/mL with Vibrio anguillarum. In addition, the MIC in the assay on Vibrio alginolyticus was 32 µg/mL (≈ 99.9 µM); in the assay on Vibrio parahaemolyticus, more than 64 µg/mL.

Consider `Cc1ccc2c(c1/C=C/C=C/C(=O)O)[C@H](C)C[C@H](CO)C2`, for which the MIC is more than 64 µg/mL with Aeromonas hydrophila; more than 64 µg/mL with Edwardsiella tarda; more than 64 µg/mL in the assay with Pseudomonas aeruginosa; more than 64 µg/mL in the assay on Escherichia coli; more than 64 µg/mL in the assay with Micrococcus luteus; 4 µg/mL (≈ 14 µM) in the assay on Vibrio anguillarum. In addition, the results for the MIC in the assay on Vibrio alginolyticus and in the assay on Vibrio parahaemolyticus were more than 64 µg/mL and 64 µg/mL (≈ 223 µM), respectively.

For the compound `Cc1ccc2c(c1/C=C/C=C/C(=O)O)[C@H](C)C[C@@](C)(O)C2=O`, the MIC was more than 64 µg/mL in the assay with Aeromonas hydrophila; more than 64 µg/mL in the assay on Edwardsiella tarda; more than 64 µg/mL in the assay with Pseudomonas aeruginosa; 64 µg/mL (≈ 213 µM) in the assay with Escherichia coli; more than 64 µg/mL in the assay with Micrococcus luteus; 4 µg/mL (≈ 13.3 µM) with Vibrio anguillarum. Besides, the MIC was more than 64 µg/mL with Vibrio alginolyticus and 64 µg/mL (≈ 213 µM) in the assay with Vibrio parahaemolyticus.

In the case of `Cc1ccc2cc(CO)cc(C)c2c1/C=C/C=C/C(=O)O`, the MIC in the assay with Aeromonas hydrophila is more than 64 µg/mL; in the assay with Edwardsiella tarda it was 64 µg/mL (≈ 227 µM); in the assay with Pseudomonas aeruginosa, more than 64 µg/mL; in the assay on Escherichia coli, 64 µg/mL (≈ 227 µM); in the assay on Micrococcus luteus it was 2 µg/mL (≈ 7.08 µM); in the assay on Vibrio anguillarum, more than 64 µg/mL. For the same compound, the MIC in the assay on Vibrio alginolyticus stood at 16 µg/mL (≈ 56.7 µM); with Vibrio parahaemolyticus, 32 µg/mL (≈ 113 µM).

As to `O=C(N[C@H](CO)[C@H](O)c1ccc([N+](=O)[O-])cc1)C(Cl)Cl` [CHLORAMPHENICOL], the MIC is 1 µg/mL (≈ 3.09 µM) in the assay with Aeromonas hydrophila; 2 µg/mL (≈ 6.19 µM) with Edwardsiella tarda; 1 µg/mL (≈ 3.09 µM) in the assay on Pseudomonas aeruginosa; 1 µg/mL (≈ 3.09 µM) in the assay with Escherichia coli; 0.5 µg/mL (≈ 1.55 µM) in the assay with Micrococcus luteus; 2 µg/mL (≈ 6.19 µM) in the assay with Vibrio anguillarum. The MIC was 2 µg/mL (≈ 6.19 µM) with Vibrio alginolyticus and 1 µg/mL (≈ 3.09 µM) with Vibrio parahaemolyticus.
